≈ marks a conversion by molar mass, not a printed value.
Tests used:
Assay type in all cases: functional
Escherichia coli = test: Antibacterial activity against Escherichia coli DSM 30083 after 16 hrs by microdilution assay; details: DSM 30083 = JCM 1649 = ATCC 11775, 16 h
Acinetobacter baumannii = test: Antibacterial activity against Acinetobacter baumannii DSM 30007 after 16 hrs by microdilution assay; details: DSM 30007, 16 h
Bacillus subtilis = test: Antibacterial activity against Bacillus subtilis 168 after 16 hrs by microdilution assay; details: subsp. subtilis str. 168, 16 h
Staphylococcus aureus [1] = test: Antibacterial activity against Staphylococcus aureus DSM 20231 after 16 hrs by microdilution assay; details: DSM 20231, 16 h
Staphylococcus aureus [2] = test: Antibacterial activity against methicillin-resistant Staphylococcus aureus ATCC 43300 after 16 hrs by microdilution assay; details: ATCC 43300, 16 h

CCc1c(Cn2cc(CN[C@@H](Cc3c[nH]c4ccccc34)C(=O)N[C@@H](CCCNC(=N)N)C(=O)O)nn2)c(CC)c(Cn2cc(CN[C@@H](Cc3c[nH]c4ccccc34)C(=O)N[C@@H](CCCNC(=N)N)C(=O)O)nn2)c(CC)c1Cn1cc(CN[C@@H](Cc2c[nH]c3ccccc23)C(=O)N[C@@H](CCCNC(=N)N)C(=O)O)nn1
MIC (Escherichia coli): 15 µM (≈ 22.8 µg/mL)
MIC (Acinetobacter baumannii): 15 µM (≈ 22.8 µg/mL)
MIC (Bacillus subtilis): 2.2 µM (≈ 3.35 µg/mL)
MIC (Staphylococcus aureus [1]): 15 µM (≈ 22.8 µg/mL)
MIC (Staphylococcus aureus [2]): 7.3 µM (≈ 11.1 µg/mL)

CCc1c(Cn2cc(CN[C@@H](CCCNC(=N)N)C(=O)N[C@@H](Cc3c[nH]c4ccccc34)C(=O)O)nn2)c(CC)c(Cn2cc(CN[C@@H](CCCNC(=N)N)C(=O)N[C@@H](Cc3c[nH]c4ccccc34)C(=O)O)nn2)c(CC)c1Cn1cc(CN[C@@H](CCCNC(=N)N)C(=O)N[C@@H](Cc2c[nH]c3ccccc23)C(=O)O)nn1
MIC (Escherichia coli): 60 µM (≈ 91.4 µg/mL)
MIC (Acinetobacter baumannii): 15 µM (≈ 22.8 µg/mL)
MIC (Bacillus subtilis): 1.8 µM (≈ 2.74 µg/mL)
MIC (Staphylococcus aureus [1]): 7.3 µM (≈ 11.1 µg/mL)
MIC (Staphylococcus aureus [2]): 7.3 µM (≈ 11.1 µg/mL)

N=C(N)NCCC[C@H](NC(=O)[C@H](Cc1c[nH]c2ccccc12)NC(=O)[C@H](CCCNC(=N)N)NCc1cn(Cc2cc(Cn3cc(CN[C@@H](CCCNC(=N)N)C(=O)N[C@@H](Cc4c[nH]c5ccccc45)C(=O)N[C@@H](CCCNC(=N)N)C(=O)O)nn3)cc(Cn3cc(CN[C@@H](CCCNC(=N)N)C(=O)N[C@@H](Cc4c[nH]c5ccccc45)C(=O)N[C@@H](CCCNC(=N)N)C(=O)O)nn3)c2)nn1)C(=O)O
MIC (Escherichia coli): 13 µM (≈ 24.8 µg/mL)
MIC (Acinetobacter baumannii): 54 µM (≈ 103 µg/mL)
MIC (Bacillus subtilis): 6 µM (≈ 11.4 µg/mL)
MIC (Staphylococcus aureus [1]): 27 µM (≈ 51.5 µg/mL)
MIC (Staphylococcus aureus [2]): 13 µM (≈ 24.8 µg/mL)

N=C(N)NCCC[C@H](NC(=O)[C@H](Cc1c[nH]c2ccccc12)NCc1cn(Cc2cc(Cn3cc(CN[C@@H](Cc4c[nH]c5ccccc45)C(=O)N[C@@H](CCCNC(=N)N)C(=O)O)nn3)cc(Cn3cc(CN[C@@H](Cc4c[nH]c5ccccc45)C(=O)N[C@@H](CCCNC(=N)N)C(=O)O)nn3)c2)nn1)C(=O)O
MIC (Escherichia coli): 60 µM (≈ 86.3 µg/mL)
MIC (Acinetobacter baumannii): 60 µM (≈ 86.3 µg/mL)
MIC (Bacillus subtilis): 7.6 µM (≈ 10.9 µg/mL)
MIC (Staphylococcus aureus [1]): 30 µM (≈ 43.2 µg/mL)
MIC (Staphylococcus aureus [2]): 15 µM (≈ 21.6 µg/mL)

N=C(N)NCCC[C@H](NC(=O)[C@@H](Cc1c[nH]c2ccccc12)NCc1cn(Cc2cc(Cn3cc(CN[C@H](Cc4c[nH]c5ccccc45)C(=O)N[C@@H](CCCNC(=N)N)C(=O)N[C@H](Cc4c[nH]c5ccccc45)C(=O)O)nn3)cc(Cn3cc(CN[C@H](Cc4c[nH]c5ccccc45)C(=O)N[C@@H](CCCNC(=N)N)C(=O)N[C@H](Cc4c[nH]c5ccccc45)C(=O)O)nn3)c2)nn1)C(=O)N[C@H](Cc1c[nH]c2ccccc12)C(=O)O (stereo in doubt)
MIC (Escherichia coli): 12 µM (≈ 24 µg/mL)
MIC (Acinetobacter baumannii): > 100 µM
MIC (Bacillus subtilis): 3 µM (≈ 5.99 µg/mL)
MIC (Staphylococcus aureus [1]): > 100 µM
MIC (Staphylococcus aureus [2]): 12 µM (≈ 24 µg/mL)

O=C(O)c1cn(C2CC2)c2cc(N3CCNCC3)c(F)cc2c1=O [CIPROFLOXACIN]
MIC (Escherichia coli): 1.5 µM (≈ 0.497 µg/mL)
MIC (Acinetobacter baumannii): 24 µM (≈ 7.95 µg/mL)
MIC (Bacillus subtilis): 24 µM (≈ 7.95 µg/mL)
MIC (Staphylococcus aureus [1]): 12 µM (≈ 3.98 µg/mL)
MIC (Staphylococcus aureus [2]): 12 µM (≈ 3.98 µg/mL)

CCc1c(Cn2cc(CN[C@H](Cc3c[nH]c4ccccc34)C(=O)N[C@@H](CCCNC(=N)N)C(=O)N[C@H](Cc3c[nH]c4ccccc34)C(=O)O)nn2)c(CC)c(Cn2cc(CN[C@H](Cc3c[nH]c4ccccc34)C(=O)N[C@@H](CCCNC(=N)N)C(=O)N[C@H](Cc3c[nH]c4ccccc34)C(=O)O)nn2)c(CC)c1Cn1cc(CN[C@H](Cc2c[nH]c3ccccc23)C(=O)N[C@@H](CCCNC(=N)N)C(=O)N[C@H](Cc2c[nH]c3ccccc23)C(=O)O)nn1 (stereo in doubt)
MIC (Escherichia coli): 16 µM (≈ 33.3 µg/mL)
MIC (Acinetobacter baumannii): 32 µM (≈ 66.6 µg/mL)
MIC (Bacillus subtilis): 1 µM (≈ 2.08 µg/mL)
MIC (Staphylococcus aureus [1]): 4 µM (≈ 8.33 µg/mL)
MIC (Staphylococcus aureus [2]): 2 µM (≈ 4.16 µg/mL)

H-RWRWRW-NH2
MIC (Escherichia coli): 21 µM
MIC (Acinetobacter baumannii): 21 µM
MIC (Bacillus subtilis): 1.3 µM
MIC (Staphylococcus aureus [1]): 11 µM
MIC (Staphylococcus aureus [2]): 5.3 µM

CCc1c(Cn2cc(CN[C@@H](CCCNC(=N)N)C(=O)N[C@@H](Cc3c[nH]c4ccccc34)C(=O)N[C@@H](CCCNC(=N)N)C(=O)O)nn2)c(CC)c(Cn2cc(CN[C@@H](CCCNC(=N)N)C(=O)N[C@@H](Cc3c[nH]c4ccccc34)C(=O)N[C@@H](CCCNC(=N)N)C(=O)O)nn2)c(CC)c1Cn1cc(CN[C@@H](CCCNC(=N)N)C(=O)N[C@@H](Cc2c[nH]c3ccccc23)C(=O)N[C@@H](CCCNC(=N)N)C(=O)O)nn1
MIC (Escherichia coli): 13 µM (≈ 25.9 µg/mL)
MIC (Acinetobacter baumannii): 26 µM (≈ 51.8 µg/mL)
MIC (Bacillus subtilis): 3 µM (≈ 5.97 µg/mL)
MIC (Staphylococcus aureus [1]): 13 µM (≈ 25.9 µg/mL)
MIC (Staphylococcus aureus [2]): 13 µM (≈ 25.9 µg/mL)

N=C(N)NCCC[C@H](NC(=O)[C@H](Cc1c[nH]c2ccccc12)NC(=O)[C@@H](N)CCCNC(=N)N)C(=O)NCc1cn(Cc2ccccc2)nn1
MIC (Escherichia coli): > 100 µM
MIC (Acinetobacter baumannii): > 100 µM
MIC (Bacillus subtilis): 35 µM (≈ 24 µg/mL)
MIC (Staphylococcus aureus [1]): > 100 µM
MIC (Staphylococcus aureus [2]): 70 µM (≈ 48.1 µg/mL)

N=C(N)NCCC[C@H](NCc1cn(Cc2cc(Cn3cc(CN[C@@H](CCCNC(=N)N)C(=O)N[C@@H](Cc4c[nH]c5ccccc45)C(=O)O)nn3)cc(Cn3cc(CN[C@@H](CCCNC(=N)N)C(=O)N[C@@H](Cc4c[nH]c5ccccc45)C(=O)O)nn3)c2)nn1)C(=O)N[C@@H](Cc1c[nH]c2ccccc12)C(=O)O
MIC (Escherichia coli): 60 µM (≈ 86.3 µg/mL)
MIC (Acinetobacter baumannii): 30 µM (≈ 43.2 µg/mL)
MIC (Bacillus subtilis): 3.8 µM (≈ 5.47 µg/mL)
MIC (Staphylococcus aureus [1]): 30 µM (≈ 43.2 µg/mL)
MIC (Staphylococcus aureus [2]): 15 µM (≈ 21.6 µg/mL)
